Measured values: PubChem BioAssay (NCI)
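Exposure lasted 48 hours, with cells grown in 96-well plates and compounds tested at five concentrations. Definition used: TGI = concentration required for complete inhibition of growth.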

Columns and labels:
Assay in all cases: growth of human tumour cells (NCI), 48 h
CCRF-CEM leukemia = system: CCRF-CEM leukemia
786-0 renal = system: 786-0 renal
HOP-62 NSCLC = system: HOP-62 NSCLC
UACC-257 melanoma = system: UACC-257 melanoma
EKVX NSCLC = system: EKVX NSCLC
SNB-75 CNS = system: SNB-75 CNS
HL-60(TB) leukemia = system: HL-60(TB) leukemia
T-47D breast = system: T-47D breast
TK-10 renal = system: TK-10 renal
MOLT-4 leukemia = system: MOLT-4 leukemia
SF-268 CNS = system: SF-268 CNS
SW-620 colon = system: SW-620 colon
NCI-H23 lung = system: NCI-H23 lung
HT29 colon = system: HT29 colon
MDA-N = system: MDA-N
SN12C renal = system: SN12C renal
CAKI-1 renal = system: CAKI-1 renal
M14 melanoma = system: M14 melanoma
RPMI-8226 leukemia = system: RPMI-8226 leukemia
MALME-3M melanoma = system: MALME-3M melanoma
SK-OV-3 ovarian = system: SK-OV-3 ovarian
IGROV1 ovarian = system: IGROV1 ovarian
PC-3 prostate = system: PC-3 prostate
DU-145 prostate = system: DU-145 prostate
OVCAR-8 ovarian = system: OVCAR-8 ovarian
COLO 205 colon = system: COLO 205 colon
A549 NSCLC = system: A549 NSCLC
KM12 colon = system: KM12 colon
MDA-MB-231 breast = system: MDA-MB-231 breast
HCT-15 colon = system: HCT-15 colon
RXF 393 renal = system: RXF 393 renal
K-562 leukemia = system: K-562 leukemia
SK-MEL-5 melanoma = system: SK-MEL-5 melanoma
HCC-2998 colon = system: HCC-2998 colon
SR leukemia = system: SR leukemia
SK-MEL-28 melanoma = system: SK-MEL-28 melanoma
SF-295 CNS = system: SF-295 CNS
LOX IMVI melanoma = system: LOX IMVI melanoma
UACC-62 melanoma = system: UACC-62 melanoma
MCF7 breast = system: MCF7 breast
HS 578T breast = system: HS 578T breast
SK-MEL-2 melanoma = system: SK-MEL-2 melanoma
OVCAR-3 ovarian = system: OVCAR-3 ovarian
U251 CNS = system: U251 CNS
HCT-116 colon = system: HCT-116 colon
SF-539 CNS = system: SF-539 CNS
NCI/ADR-RES ovarian = system: NCI/ADR-RES ovarian
ACHN renal = system: ACHN renal
OVCAR-5 ovarian = system: OVCAR-5 ovarian
OVCAR-4 ovarian = system: OVCAR-4 ovarian
A498 renal = system: A498 renal
NCI-H226 lung = system: NCI-H226 lung
BT-549 breast = system: BT-549 breast
UO-31 renal = system: UO-31 renal
SNB-19 CNS = system: SNB-19 CNS
MDA-MB-435 = system: MDA-MB-435
NCI-H460 lung = system: NCI-H460 lung

In the case of `Cc1c(CCN=P(c2ccccc2)(c2ccccc2)c2ccccc2)c(=O)n2c([nH]c3ccccc32)c1C#N`, the TGI (CCRF-CEM leukemia) was > 10 µM, the TGI (786-0 renal) was > 10 µM and the TGI (HOP-62 NSCLC) was > 10 µM. The TGI (UACC-257 melanoma) was > 10 µM, the TGI (EKVX NSCLC) was > 10 µM and the TGI (SNB-75 CNS) was > 10 µM. For the same molecule, the TGI (HL-60(TB) leukemia) was > 10 µM, the TGI (T-47D breast) was > 10 µM and the TGI (TK-10 renal) was > 10 µM. For the same molecule, the TGI (MOLT-4 leukemia) was > 10 µM, the TGI (SF-268 CNS) was > 10 µM and the TGI (SW-620 colon) was > 10 µM. The TGI (NCI-H23 lung) was > 10 µM, the TGI (HT29 colon) was > 10 µM and the TGI (MDA-N) was > 10 µM. The TGI (SN12C renal) was > 10 µM, the TGI (CAKI-1 renal) was > 10 µM and the TGI (M14 melanoma) was > 10 µM. The TGI (RPMI-8226 leukemia) was > 10 µM, the TGI (MALME-3M melanoma) was > 10 µM and the TGI (SK-OV-3 ovarian) was > 10 µM. For the same molecule, the TGI (IGROV1 ovarian) was > 10 µM, the TGI (PC-3 prostate) was > 10 µM and the TGI (DU-145 prostate) was > 10 µM. For the same molecule, the TGI (OVCAR-8 ovarian) was > 10 µM, the TGI (COLO 205 colon) was > 10 µM and the TGI (A549 NSCLC) was > 10 µM. The TGI (KM12 colon) was > 10 µM, the TGI (MDA-MB-231 breast) was > 10 µM and the TGI (HCT-15 colon) was > 10 µM. For the same molecule, the TGI (RXF 393 renal) was > 10 µM, the TGI (K-562 leukemia) was > 10 µM and the TGI (SK-MEL-5 melanoma) was > 10 µM. The TGI (HCC-2998 colon) was > 10 µM, the TGI (SR leukemia) was > 10 µM and the TGI (SK-MEL-28 melanoma) was > 10 µM. The TGI (SF-295 CNS) was > 10 µM, the TGI (LOX IMVI melanoma) was > 10 µM and the TGI (UACC-62 melanoma) was > 10 µM. The TGI (MCF7 breast) was > 10 µM.
`Cc1ccc(S(=O)(=O)N(c2ccccc2F)C2CCCCC2O)cc1` (configuration not stated) was tested, and the TGI (CCRF-CEM leukemia) was > 100 µM, the TGI (HS 578T breast) was > 100 µM and the TGI (786-0 renal) was > 100 µM. The TGI (SK-MEL-2 melanoma) was 93.7 µM, the TGI (HOP-62 NSCLC) was > 100 µM and the TGI (UACC-257 melanoma) was 5.64 µM. The TGI (OVCAR-3 ovarian) was 66.9 µM, the TGI (U251 CNS) was > 100 µM and the TGI (EKVX NSCLC) was > 100 µM. For the same molecule, the TGI (HCT-116 colon) was > 100 µM, the TGI (SNB-75 CNS) was 88.5 µM and the TGI (HL-60(TB) leukemia) was > 100 µM. For the same molecule, the TGI (TK-10 renal) was > 100 µM, the TGI (SF-268 CNS) was > 100 µM and the TGI (SW-620 colon) was > 100 µM. For the same molecule, the TGI (SF-539 CNS) was > 100 µM, the TGI (NCI/ADR-RES ovarian) was > 100 µM and the TGI (NCI-H23 lung) was > 100 µM. The TGI (ACHN renal) was > 100 µM, the TGI (HT29 colon) was > 100 µM and the TGI (MDA-N) was 50.1 µM. For the same molecule, the TGI (OVCAR-5 ovarian) was > 100 µM, the TGI (SN12C renal) was > 100 µM and the TGI (OVCAR-4 ovarian) was > 100 µM. The TGI (M14 melanoma) was > 100 µM, the TGI (RPMI-8226 leukemia) was > 100 µM and the TGI (MALME-3M melanoma) was > 100 µM. The TGI (SK-OV-3 ovarian) was 64 µM, the TGI (PC-3 prostate) was > 100 µM and the TGI (DU-145 prostate) was 96.7 µM. The TGI (OVCAR-8 ovarian) was > 100 µM, the TGI (A498 renal) was > 100 µM and the TGI (COLO 205 colon) was 71.3 µM. The TGI (NCI-H226 lung) was > 100 µM, the TGI (A549 NSCLC) was > 100 µM and the TGI (KM12 colon) was > 100 µM. The TGI (MDA-MB-231 breast) was > 100 µM, the TGI (BT-549 breast) was 61.8 µM and the TGI (HCT-15 colon) was > 100 µM. For the same molecule, the TGI (UO-31 renal) was > 100 µM, the TGI (K-562 leukemia) was > 100 µM and the TGI (SK-MEL-5 melanoma) was 56.9 µM. For the same molecule, the TGI (SNB-19 CNS) was > 100 µM, the TGI (MDA-MB-435) was 48.5 µM and the TGI (HCC-2998 colon) was > 100 µM. The TGI (SR leukemia) was 51.8 µM, the TGI (NCI-H460 lung) was > 100 µM and the TGI (SK-MEL-28 melanoma) was > 100 µM. The TGI (SF-295 CNS) was > 100 µM, the TGI (LOX IMVI melanoma) was > 100 µM and the TGI (UACC-62 melanoma) was > 100 µM. For the same molecule, the TGI (MCF7 breast) was 48.5 µM.
